According to US9409903B2, “Benzyl substituted triazine derivatives and their therapeutical applications” (NantBioScience, Inc., priority 2009, dated 2016):

Columns and labels:
Type in all cases: biochemical
c-Src kinase = biological target: T1, c-Src kinase (Homo sapiens, UniProt P12931); assay: c-Src kinase inhibition assay (KinaseProfiler / Kinase Hotspot); conditions: compound at 1 μM; read-out: % Inhibition @1 μM cSrc
T1 construct: purchased Millipore (KinaseProfiler service); also Reaction Biology Corp. (Kinase Hotspot)
T1 sequence (P12931 whole entry): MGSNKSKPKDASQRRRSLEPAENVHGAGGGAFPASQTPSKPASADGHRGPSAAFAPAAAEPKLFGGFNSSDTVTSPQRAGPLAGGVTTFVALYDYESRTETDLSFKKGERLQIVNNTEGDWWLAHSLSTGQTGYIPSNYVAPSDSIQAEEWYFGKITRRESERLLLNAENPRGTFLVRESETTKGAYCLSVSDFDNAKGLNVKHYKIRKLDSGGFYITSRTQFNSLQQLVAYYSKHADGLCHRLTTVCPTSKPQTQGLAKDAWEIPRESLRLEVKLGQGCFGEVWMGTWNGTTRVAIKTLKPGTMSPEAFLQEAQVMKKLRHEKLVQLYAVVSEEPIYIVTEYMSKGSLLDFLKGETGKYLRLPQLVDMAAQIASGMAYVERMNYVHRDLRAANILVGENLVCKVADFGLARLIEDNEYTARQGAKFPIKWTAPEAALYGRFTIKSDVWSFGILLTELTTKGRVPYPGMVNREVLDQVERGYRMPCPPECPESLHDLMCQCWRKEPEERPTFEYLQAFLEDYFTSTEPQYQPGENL
Protocol: (§1) This example illustrated c-Src kinase, Aurora-A kinase, Flt3 kinase, Ret kinase and TrkA Kinase Assays of selected Compounds from this invention (referred to Daniele Fancelli et al, J. Med. Chem., 2006, 49 (24), pp 7247-7251). The KinaseProfiler™ Service Assay Protocols (Millipore) were used to test the kinase inhibiting activity of novel compounds from this invention. To do this, the buffer composition was as: 20 mM MOPS, 1 mM EDTA, 0.01% Brij-35, 5% Glycerol, 0.1% β-mercaptoethanol, 1 mg/mL BSA. Test compounds were initially dissolved in DMSO at the desired concentration, then serially diluted to the kinase assay buffer. In a final reaction volume of 25 μL, Aurora-A(h) (5-10 mU) is incubated with 8 mM MOPS pH 7.0, 0.2 mM EDTA, 200 μM LRRASLG (Kemptide), 10 mM MgAcetate and [γ^33P-ATP]. The reaction was initiated by the addition of the MgATP mix. After incubation for 40 minute at room temperature, the reaction was stopped by addition of 5 μL of a 3% phosphoric acid solution. 10 μL of the reaction was then spotted onto a P30 filtermat and washed three times for 5 minutes in 50 mM phosphoric acid and once in methanol prior to drying and scintillation counting. Wells containing substrate but no kinase and wells containing a phosphopeptide control were used to set 0% and 100% phosphorylation value, receptively.
(§2) Also Kinase Hotspot^SM kinase assay was used to test the compounds for IC50 or % inhibitions (Reaction Biology Corp.). Inhibitor IC50 values were determined by titration of compound at the optimal kinase concentration (Kinase EC50).

Aurora-A(h) = biological target: T2, Aurora-A(h) (Homo sapiens, UniProt O14965); assay: Aurora-A kinase inhibition assay (KinaseProfiler / Kinase Hotspot); conditions: compound at 1 μM
T2 construct: purchased Millipore (KinaseProfiler service); also Reaction Biology Corp. (Kinase Hotspot)
T2 sequence (O14965 1-403): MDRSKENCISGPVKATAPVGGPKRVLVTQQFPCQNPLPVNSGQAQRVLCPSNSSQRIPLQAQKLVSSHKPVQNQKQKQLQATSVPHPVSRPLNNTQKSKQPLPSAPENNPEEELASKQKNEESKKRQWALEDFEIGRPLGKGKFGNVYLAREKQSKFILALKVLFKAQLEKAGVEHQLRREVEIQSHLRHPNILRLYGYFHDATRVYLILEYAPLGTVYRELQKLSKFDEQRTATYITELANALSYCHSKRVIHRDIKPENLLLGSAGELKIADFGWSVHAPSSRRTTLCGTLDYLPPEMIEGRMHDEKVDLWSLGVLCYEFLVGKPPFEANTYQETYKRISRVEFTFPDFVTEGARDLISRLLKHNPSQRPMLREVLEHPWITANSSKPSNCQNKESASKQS
Protocol: as §1, §2

Flt3 kinase = biological target: T3, Flt3 kinase (Homo sapiens, UniProt P36888); assay: Flt3 kinase inhibition assay (KinaseProfiler / Kinase Hotspot); conditions: compound at 1 μM
T3 construct: purchased Millipore (KinaseProfiler service); also Reaction Biology Corp. (Kinase Hotspot)
T3 sequence (P36888 27-993): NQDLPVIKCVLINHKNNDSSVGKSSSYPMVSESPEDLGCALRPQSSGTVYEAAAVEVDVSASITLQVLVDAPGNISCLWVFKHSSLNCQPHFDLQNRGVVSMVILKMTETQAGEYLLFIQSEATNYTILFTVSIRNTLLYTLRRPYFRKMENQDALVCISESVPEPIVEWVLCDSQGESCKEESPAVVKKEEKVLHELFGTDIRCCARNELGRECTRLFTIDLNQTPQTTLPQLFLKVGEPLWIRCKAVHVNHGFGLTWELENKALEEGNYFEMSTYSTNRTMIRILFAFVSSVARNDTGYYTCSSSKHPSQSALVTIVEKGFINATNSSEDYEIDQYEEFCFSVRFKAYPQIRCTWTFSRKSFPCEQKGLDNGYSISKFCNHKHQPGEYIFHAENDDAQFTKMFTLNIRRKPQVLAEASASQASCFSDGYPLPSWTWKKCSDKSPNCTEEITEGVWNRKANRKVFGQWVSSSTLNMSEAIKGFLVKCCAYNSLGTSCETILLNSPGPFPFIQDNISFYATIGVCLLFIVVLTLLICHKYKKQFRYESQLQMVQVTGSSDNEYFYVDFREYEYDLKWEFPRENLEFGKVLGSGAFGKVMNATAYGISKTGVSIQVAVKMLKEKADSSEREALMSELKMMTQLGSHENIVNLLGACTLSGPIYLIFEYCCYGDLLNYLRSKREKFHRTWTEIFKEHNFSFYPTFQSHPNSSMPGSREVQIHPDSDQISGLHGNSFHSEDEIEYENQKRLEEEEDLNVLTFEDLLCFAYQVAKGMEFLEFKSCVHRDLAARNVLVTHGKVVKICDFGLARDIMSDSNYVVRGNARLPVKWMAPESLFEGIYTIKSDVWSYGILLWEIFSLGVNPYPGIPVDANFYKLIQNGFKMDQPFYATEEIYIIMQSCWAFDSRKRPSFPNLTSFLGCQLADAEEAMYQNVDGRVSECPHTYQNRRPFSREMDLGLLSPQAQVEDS
Protocol: as §1, §2

Ret kinase = biological target: T4, Ret kinase (Homo sapiens, UniProt P07949); assay: Ret kinase inhibition assay (KinaseProfiler / Kinase Hotspot); conditions: compound at 1 μM
T4 construct: purchased Millipore (KinaseProfiler service); also Reaction Biology Corp. (Kinase Hotspot)
T4 sequence (P07949 29-1114): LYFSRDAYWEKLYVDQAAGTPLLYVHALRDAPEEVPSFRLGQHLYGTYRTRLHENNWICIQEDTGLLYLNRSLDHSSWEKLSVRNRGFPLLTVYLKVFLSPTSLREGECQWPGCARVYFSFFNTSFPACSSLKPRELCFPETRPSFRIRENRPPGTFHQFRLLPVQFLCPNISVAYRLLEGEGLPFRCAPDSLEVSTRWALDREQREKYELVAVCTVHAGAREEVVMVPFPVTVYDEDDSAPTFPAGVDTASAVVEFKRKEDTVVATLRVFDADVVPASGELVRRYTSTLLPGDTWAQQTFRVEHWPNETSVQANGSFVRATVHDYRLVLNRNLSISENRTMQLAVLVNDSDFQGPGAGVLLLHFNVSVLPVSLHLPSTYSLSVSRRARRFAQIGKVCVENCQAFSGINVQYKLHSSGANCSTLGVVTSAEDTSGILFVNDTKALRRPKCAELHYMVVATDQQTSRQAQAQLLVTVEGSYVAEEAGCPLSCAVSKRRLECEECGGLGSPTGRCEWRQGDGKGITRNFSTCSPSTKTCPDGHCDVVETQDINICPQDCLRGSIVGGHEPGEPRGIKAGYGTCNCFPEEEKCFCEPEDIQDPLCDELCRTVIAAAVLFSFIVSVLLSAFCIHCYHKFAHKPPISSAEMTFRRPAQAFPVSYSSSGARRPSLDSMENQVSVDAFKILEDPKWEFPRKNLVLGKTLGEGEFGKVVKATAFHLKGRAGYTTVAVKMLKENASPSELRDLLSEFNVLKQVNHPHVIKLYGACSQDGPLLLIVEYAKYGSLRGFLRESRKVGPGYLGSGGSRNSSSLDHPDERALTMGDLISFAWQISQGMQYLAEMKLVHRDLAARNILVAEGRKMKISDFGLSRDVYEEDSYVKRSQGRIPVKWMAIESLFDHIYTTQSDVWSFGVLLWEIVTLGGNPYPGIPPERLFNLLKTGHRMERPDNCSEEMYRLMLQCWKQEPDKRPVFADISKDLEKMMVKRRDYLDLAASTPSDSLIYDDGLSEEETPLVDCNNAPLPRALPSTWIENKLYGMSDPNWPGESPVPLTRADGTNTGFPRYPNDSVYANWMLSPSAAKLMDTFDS
Protocol: as §1, §2

TrkA Kinase = biological target: T5, TrkA Kinase (Homo sapiens, UniProt P04629); assay: TrkA kinase inhibition assay (KinaseProfiler / Kinase Hotspot); conditions: compound at 1 μM
T5 construct: purchased Millipore (KinaseProfiler service); also Reaction Biology Corp. (Kinase Hotspot)
T5 sequence (P04629 33-796): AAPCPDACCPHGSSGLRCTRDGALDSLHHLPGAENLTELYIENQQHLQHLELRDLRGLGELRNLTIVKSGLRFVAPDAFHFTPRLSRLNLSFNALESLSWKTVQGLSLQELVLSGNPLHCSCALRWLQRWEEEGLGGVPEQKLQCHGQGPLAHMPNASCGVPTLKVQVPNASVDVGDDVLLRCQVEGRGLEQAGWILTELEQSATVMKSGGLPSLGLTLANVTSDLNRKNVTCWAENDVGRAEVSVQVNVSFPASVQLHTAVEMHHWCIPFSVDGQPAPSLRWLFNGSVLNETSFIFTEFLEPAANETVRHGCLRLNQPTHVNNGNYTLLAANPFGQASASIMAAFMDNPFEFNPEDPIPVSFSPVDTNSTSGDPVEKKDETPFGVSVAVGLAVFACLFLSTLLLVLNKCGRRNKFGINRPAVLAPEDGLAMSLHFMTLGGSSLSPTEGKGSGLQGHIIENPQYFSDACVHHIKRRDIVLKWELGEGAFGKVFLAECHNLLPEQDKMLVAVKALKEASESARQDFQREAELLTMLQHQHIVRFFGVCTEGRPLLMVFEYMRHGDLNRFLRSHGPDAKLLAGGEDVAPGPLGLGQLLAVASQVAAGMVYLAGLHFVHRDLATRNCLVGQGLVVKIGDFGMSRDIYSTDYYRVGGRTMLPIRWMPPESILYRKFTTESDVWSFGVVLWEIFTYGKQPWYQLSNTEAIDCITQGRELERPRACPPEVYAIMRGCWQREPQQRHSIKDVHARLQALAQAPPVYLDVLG
Protocol: as §1, §2

Row | inhibition at 1 µM (c-Src kinase) [%] | inhibition at 1 µM (Aurora-A(h)) [%] | inhibition at 1 µM (Flt3 kinase) [%] | inhibition at 1 µM (Ret kinase) [%] | inhibition at 1 µM (TrkA Kinase) [%] | % Inhibition @1 μM Flt3 (Flt3 kinase) [%] | % Inhibition @1 μM Ret (Ret kinase) [%] | % Inhibition @1 μM TrkA (TrkA Kinase) [%] | Structure (SMILES)
1 | > 90 | < 50 | > 90 | < 50 | > 90 |  |  |  | CC(C)c1cnc(Nc2nc(NC(C)c3ccc(F)cc3)nc(N3CCN(C)CC3)n2)s1 (stereo not shown) [Example 2]
2 | < 50 | < 50 | > 90 | < 50 | > 90 |  |  |  | CN1CCN(c2nc(Nc3cc(-c4ccco4)[nH]n3)nc(OCc3ccccc3)n2)CC1 [Example 14]
3 | < 50 | < 50 | < 50 | < 50 | < 50 |  |  |  | CN1CCN(c2nc(NCc3ccccc3)nc(Nc3ncc(-c4ccccc4)s3)n2)CC1 [Example 19]
4 | < 50 | < 50 | > 90 | < 50 | > 90 |  |  |  | CN1CCN(c2nc(Nc3cc(-c4ccco4)[nH]n3)nc(SCc3ccccc3)n2)CC1 [Example 15]
5 | 50 to 90 | 50 to 90 | > 90 | < 50 | > 90 |  |  |  | CN1CCN(c2nc(Nc3cc(-c4ccco4)[nH]n3)nc(SCc3ccc(F)cc3)n2)CC1 [Example 11]
6 | > 90 | < 50 | > 90 | > 90 | > 90 |  |  |  | C[C@@H](Nc1nc(Nc2cc(-c3ccco3)[nH]n2)nc(N2CCN(C)CC2)n1)c1ccc(F)cc1 [Example 18]
7 | 50 to 90 | < 50 | > 90 | < 50 | 50 to 90 |  |  |  | CC(C)c1cnc(Nc2nc(N[C@H](C)c3ccc(F)cc3)nc(N3CCN(C)CC3)n2)s1 [Example 4]
8 | < 50 | < 50 | > 90 | > 90 | > 90 |  |  |  | CN1CCN(c2nc(Nc3cc(-c4ccco4)[nH]n3)nc(NC(C)(C)c3ccccc3)n2)CC1 [Example 23]
9 | > 90 | 50 to 90 | > 90 | 50 to 90 | > 90 |  |  |  | CC(C)c1cnc(Nc2nc(N[C@@H](C)c3ccc(F)cc3)nc(N3CCN(C)CC3)n2)s1 [Example 3]
10 | 50 to 90 | 50 to 90 | > 90 | 50 to 90 | > 90 |  |  |  | Cc1cnc(Nc2nc(NCc3ccc4c(c3)OCO4)nc(N3CCN(C)CC3)n2)s1 [Example 6]
11 |  |  |  |  |  | >90 | >90 | >90 | C[C@@H](Nc1nc(Nc2cc(-c3ccco3)[nH]n2)nc(N2CCN(C)CC2)n1)c1ccc(F)cc1 [Example 22]
12 | 50 to 90 | 50 to 90 | > 90 | > 90 | > 90 |  |  |  | Cc1cnc(Nc2nc(NCc3ccccc3)nc(N3CCN(C)CC3)n2)s1 [Example 7]
13 | 50 to 90 | < 50 | > 90 | < 50 | > 90 |  |  |  | CN1CCN(c2nc(NCc3ccccc3)nc(Nc3cc(-c4ccco4)[nH]n3)n2)CC1 [Example 12]
14 | 50 to 90 | 50 to 90 | 50 to 90 | < 50 | 50 to 90 |  |  |  | CC(Nc1nc(Nc2cc(C3CC3)[nH]n2)nc(N2CCN(C)CC2)n1)c1ccc(F)cc1 (stereo not shown) [Example 20]
15 | < 50 | < 50 | > 90 | > 90 | > 90 |  |  |  | C[C@H](Nc1nc(Nc2cc(-c3ccco3)[nH]n2)nc(N2CCN(C)CC2)n1)c1ccc(F)cc1 [Example 21]
16 | 50 to 90 | 50 to 90 | > 90 | < 50 | > 90 |  |  |  | CN1CCN(c2nc(Nc3cc(-c4ccco4)[nH]n3)nc(N(C)Cc3ccc(F)cc3)n2)CC1 [Example 10]
17 | 50 to 90 | 50 to 90 | > 90 | 50 to 90 | > 90 |  |  |  | Cc1cnc(Nc2nc(NCc3ccc(F)cc3)nc(N3CCN(C)CC3)n2)s1 [Example 8]
18 | 50 to 90 | < 50 | > 90 | < 50 | > 90 |  |  |  | CN1CCN(c2nc(NCc3ccc(F)cc3)nc(Nc3cc(-c4ccco4)[nH]n3)n2)CC1 [Example 9]
